# Results: patent US4980287A, “4H-3,1-benzoxazin-4-one compounds and pharmaceutical compositions thereof for the inhibition of serine proteases” (Teijin Limited, priority 1987, dated 1990)
# pIC50: −log10 of the molar value.
# Assays:
# [1] = target: T1, human purulent sputum elastase (Homo sapiens, UniProt P08246); test: Human purulent sputum elastase-inhibitory activity (hydrolysis of methoxysuccinyl-peptidyl-p-nitroanilide, absorbance at 410 nm); type: biochemical; details: for pIC50: Table 10, procedure of Example 19 (A)
# T1 construct: purchased Elastin Products Co; host or cells: human purulent sputum
# T1 sequence (P08246 30-247 limits assumed): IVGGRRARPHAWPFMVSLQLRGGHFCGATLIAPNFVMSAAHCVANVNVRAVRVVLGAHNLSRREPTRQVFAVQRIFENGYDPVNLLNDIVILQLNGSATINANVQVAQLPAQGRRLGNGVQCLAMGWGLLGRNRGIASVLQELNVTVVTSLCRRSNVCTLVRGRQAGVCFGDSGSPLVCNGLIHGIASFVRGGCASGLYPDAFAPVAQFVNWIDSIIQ
# Source text: Human purulent sputum elastase is believed to be the same enzyme as human leukocyte elastase, as described by Tomashi et al. (J. BIOL. CHEM., vol. 252, pages 1917 to 1924 (1977)), and can be easily obtained commercially.
# The extent of the hydrolysis of AAPVpNA by human purulent sputum elastase can be easily determined by measuring the amount of p-nitroaniline released from AAPVpNA, by a spectrophotometer. Then, by comparing the extent of hydrolysis of AAPVpNA by the human purulent sputum elastase in the absence of a compound to be tested with that in the presence of the compound to be tested in various concentrations, a concentration (IC50) of the compound to be tested necessary to inhibit 50% of the elastase reaction can be determined.
# (§1) Inhibitory activities of 7-(N-carbobenzoxy-L-phenylalanyl)amino-2-isopropylamino-5-methyl-4H-3,1- benzoxazin-4-one for human purulent sputum elastase, for α-chymotrypsin, for cathepsin G, for trypsin, for thrombin and for plasmin were determined by the following methods and the results are shown in Table 9.
# The testing buffer (pH7.5) consisted of 0.1M N-2-hyiroxyethylpiperazine-N'-2-ethanesulfonic acid, 1M sodium chloride and 0.1% w/v polyethylene glycol 6000.
# Human purulent sputum elastase was obtained from Elastin Products Co., and adjusted to 1.5×10^-8 M in the testing buffer.
# Methoxysuccinyl-[…]-p-nitroanilide was obtained from Bachem Co., and made to 10 mM in dimethyl sulfoxide.
# Procedure To 2.4ml of testing buffer in a cell set at 37° in a spectrophotometer (Hitachi U-3200) with a temperature controlled cell holder were added 25 μl of substrate solution and 25 μl of acetonitrile with or without inhibitory compounds, and the resultant mixture was stirred. Reactions were initiated by addition of 50 μl of the enzyme solution and hydrolysis of the substrate was monitored by measuring a change of light absorbance at 410 nm. The concentration (IC50) at which 50% of the activity of human purulent sputum elastase was inhibited was determined for each inhibitory compound from a steady state velocity of the substrate hydrolysis.
# (§2) In each of Examples 20 to 37 and Comparative Examples 1 to 4, the same experimental procedures as those described in Example 19, items (A) and (B) were used for determination of enzyme inhibitory activity, except that the compound indicated in Table 10 was tested as an inhibitory compound.
# [2] = target: T2, bovine pancreas α-chymotrypsin (Bos taurus, UniProt P00766); test: α-chymotrypsin-inhibitory activity (hydrolysis of succinyl-Ala-Ala-Pro-Phe-p-nitroanilide); type: biochemical; details: for pIC50 / Selectivity: Table 10; for pIC50: procedure of Example 19 (B); for Selectivity: ratio of IC50 for bovine α-chymotrypsin to IC50 for human purulent sputum elastase
# T2 construct: bovine pancreas α-chymotrypsin; purchased Sigma Co; host or cells: bovine pancreas
# Experimental: An in vitro test similar to that mentioned above can be applied to chymotrypsin.
# As a chymotrypsin, α-chymotrypsin of bovine pancreas, which is readily available commercially, is used. […] The extent of the hydrolysis of AAPFpNA is measured in the absence of a compound to be tested or in the presence of the compound in various concentrations thereof, and thus a concentration (IC50) of the compound necessary to inhibit 50% of the enzyme reaction can be determined.
# as §1
# The same procedures as those described in the above item (A) for the human purulent sputum elastase were carried out, with the following exception.
# The enzyme-testing tuffer solution contained 2×10^-8 M bovine pancreas α-chymotrypsin (available from Sigma Co.). The synthetic substrate was succinyl-L-alanyl-L-alanyl-L-prolyl-L-henylalanyl-p-nitroanilide (available from Bachem Co.).
# An IC50 for the α-chymotrypsin was determined in the same manner as mentioned above. (C) Determination of human cathepsin G-inhibitory activity
# as §2
# In Table 10, the item "Selectivity" refers to a ratio of an IC50 value for bovine α-chymotrypsin to an IC50 value for human purulent sputum elastase. The larger the value of the ratio, the higher the selectivity of the inhibitory activity for elastase.
# [3] = target: T3, human thrombin (Homo sapiens, UniProt P00734); test: Thrombin-inhibitory activity; type: biochemical; details: Table 9
# T3 construct: human thrombin; purchased Daiichi Kagaku Yakuhin K.K
# Experimental: as §1
# The same procedures as those described in item (A) were carried out except that the enzyme-testing buffer solution contained 0.04 μkat/ml human thrombin (available from Daiichi Kagaku Yakuhin K.K.) and the substrate consisted of D-phenylalanyl-pipecolyl-arginyl-p-nitroanilide (available from Daiichi Kagaku Yakuhin K.K.).
# An IC for the human thrombin was determined in the same manner as mentioned above.
# [4] = Stability in human serum (37° C., HPLC peak area); type: in vitro ADME
# Experimental: A solution of […] of 7-(N-carbobenzoxy-L-phenylalanyl)amino-2-isopropylamino-5-methyl-4H-3,1-benzoxazin-4-one in 50 μl acetonitrile was mixed with 0.45 ml of human serum, and the resultant mixture was allowed to stand at a temperature of 37° C. The mixture was subjected to treatment with a Sep-pac C18 cartridge (trademark, made by Waters Cc.) for removal of protein, and a portion of the resultant acetonitrile-eluted fraction was subjected to a high speed liquid chromatographic analysis.
# [5] = target: T4, human plasmin (Homo sapiens, UniProt P00747); test: Plasmin-inhibitory activity; type: biochemical; details: Table 9
# T4 construct: human plasmin; purchased Daiichi Kagaku Yakuhin K.K
# Experimental: as §1
# The same procedures as those described in item (A) were carried out except that the enzyme testing buffer solution contained 0.6 CasU/ml human plasmin (available from Daiichi Kagaku Yakuhin K.K.) and the substrate consisted of D-valyl-L-leucyl-L-lysyl-p-nitro-anilide (available from Daiichi Kagaku Yakuhin K.K.).
# An IC50 for the human plasmin was determined in the same manner as mentioned above.
# [6] = ratio of IC50 for the protease to IC50 for human purulent sputum elastase
# [7] = Table 9, ratio of IC50 for the protease to IC50 for human purulent sputum elastase
# T4 sequence (P00747 581-810 limits assumed): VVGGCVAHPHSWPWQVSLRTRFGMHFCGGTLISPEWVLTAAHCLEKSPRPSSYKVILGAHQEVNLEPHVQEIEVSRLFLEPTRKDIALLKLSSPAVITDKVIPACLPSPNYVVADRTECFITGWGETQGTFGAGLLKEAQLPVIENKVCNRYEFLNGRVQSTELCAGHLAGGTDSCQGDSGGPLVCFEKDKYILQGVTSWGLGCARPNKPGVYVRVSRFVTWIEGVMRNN
# T4 sequence (P00747 97-580 partner limits assumed): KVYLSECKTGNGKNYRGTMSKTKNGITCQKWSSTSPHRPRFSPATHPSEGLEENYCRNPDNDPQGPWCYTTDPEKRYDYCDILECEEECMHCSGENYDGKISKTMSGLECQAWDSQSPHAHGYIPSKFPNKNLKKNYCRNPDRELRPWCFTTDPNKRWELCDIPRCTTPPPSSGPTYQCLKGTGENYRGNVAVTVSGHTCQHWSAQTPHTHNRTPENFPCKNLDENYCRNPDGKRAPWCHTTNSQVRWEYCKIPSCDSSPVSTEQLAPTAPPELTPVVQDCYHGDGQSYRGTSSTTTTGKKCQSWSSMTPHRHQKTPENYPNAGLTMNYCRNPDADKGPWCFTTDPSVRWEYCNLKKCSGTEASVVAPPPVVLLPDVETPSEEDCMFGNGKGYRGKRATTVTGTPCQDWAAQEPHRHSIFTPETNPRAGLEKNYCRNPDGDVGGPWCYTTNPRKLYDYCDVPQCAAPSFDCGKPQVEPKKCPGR
Structure (SMILES),pIC50 [1],pIC50 [2],Selectivity [2],further results
CC(C)Oc1nc2cc(NC(=O)[C@@H](Cc3ccccc3)NC(=O)OCc3ccccc3)ccc2c(=O)o1 [Example 27],7.39,6.31,12,–
CC(C)Oc1nc2cc(NC(=O)[C@H](C)NC(=O)OCc3ccccc3)ccc2c(=O)o1 [Example 22],7.11,6.43,4.8,–
CC(C)Oc1nc2cc(NC(=O)[C@H](CCCCNC(=O)OCc3ccccc3)NC(=O)OCc3ccccc3)ccc2c(=O)o1 [Example 25],7.85,6.24,41,–
CC(C)Oc1nc2cc(NC(=O)[C@@H](NC(=O)[C@@H]3CCCN3C(=O)OCc3ccccc3)C(C)C)ccc2c(=O)o1 [Example 32],7.70,6.92,5.8,–
CC(C)Oc1nc2cc(NC(=O)[C@H](CCC(=O)OCc3ccccc3)NC(=O)OCc3ccccc3)ccc2c(=O)o1 [Example 26],7.59,< 6.30,> 20,–
"O=C(Nc1ccc2c(=O)oc(C(F)(F)F)nc2c1)[C@@H]1CCCN1C(=O)OCc1ccccc1 [Example 20, 7-(N-carbobenzoxy-L-prolyl)amino-2-trifluoromethyl-4H-3,1-benzoxazin-4-one]",5.66,4.77,7.7,–
"CC(C)Oc1nc2ccccc2c(=O)o1 [compound 2, reference compound]",7.31,7.66,0.44,–
"CC(C)Oc1nc2cc(NC(=O)[C@@H]3CCCN3C(=O)OCc3ccccc3)ccc2c(=O)o1 [Example 21, 7-(N-carbobenzoxy-L-prolyl)amino-2-isopropoxy-4H-3,1-benzoxazin-4-one]",7.36,6.77,3.9,–
"Cc1nc2cc(NC(=O)[C@H](Cc3ccccc3)NC(=O)OCc3ccccc3)ccc2c(=O)o1 [Example 37, 7-(N-carbobenzoxy-L-phenylalanyl)amino-2-methyl-4H-3,1-benzoxazin4-one]",5.29,3.80,31,–
CC(C)Oc1nc2cc(NC(=O)[C@@H]3CCCN3C(=O)[C@H](C)NC(=O)OCc3ccccc3)ccc2c(=O)o1 [Example 31],7.49,6.74,5.6,–
CC(C)Oc1nc2cc(NC(=O)[C@H](Cc3ccccc3)NC(=O)OCc3ccccc3)ccc2c(=O)o1 [Example 24],7.96,6.47,31,–

# Now from value to compound, other results behind:
pIC50 [1],pIC50 [2],Selectivity [2],Structure (SMILES),further results
7.24,7.49,0.55,"CC(=O)Nc1ccc2c(=O)oc(OC(C)C)nc2c1 [compound 3, reference compound]",–
5.21,6.17,0.10,"O=c1oc(C(F)(F)F)nc2ccccc12 [compound 1, reference compound]",–
7.39,6.92,2.9,"Cc1cccc2nc(OC(C)C)oc(=O)c12 [compound 4, reference compound]",–
9.26,8.00,18,"Cc1cc(NC(=O)[C@H](Cc2ccccc2)NC(=O)OCc2ccccc2)cc2nc(OC(C)C)oc(=O)c12 [Example 34, 7-(N-carbobenzoxy-L-phenylalanyl)amino-2-isopropoxy-5-methyl-4H-3,1-benzoxazin-4-one]",–
7.34,7.03,2.0,CC(C)Oc1nc2cc(NC(=O)[C@H](Cc3ccccc3)NC(=O)OC(C)(C)C)ccc2c(=O)o1 [Example 29],–
7.62,6.80,6.6,CC(C)Oc1nc2cc(NC(=O)[C@@H](NC(=O)OCc3ccccc3)C(C)C)ccc2c(=O)o1 [Example 23],–
8.89,7.60,19,"Cc1cc(NC(=O)[C@H](Cc2ccccc2)NC(=O)OCc2ccccc2)cc2nc(NC(C)C)oc(=O)c12 [Example 36, 7-(N-carbobenzoxy-L-phenylalanyl)amino-5-methyl-2-isopropylamino-4H-3,1-benzoxazin-4-one]","pIC50 ([3]; 0.04 μkat/ml enzyme): < 4.00; Selectivity, human thrombin [3, 6]: > 100,000; Selectivity, human purulent sputum elastase [1, 7]: 1; half-life [4]: 2.5 h; Selectivity, bovine pancreas α-chymotrypsin [2, 7]: 19; pIC50 ([5]; 0.6 CasU/ml enzyme): 4.12; Selectivity, human plasmin [5, 6]: 58,000"
6.89,6.31,3.8,CC(=O)N1CCC[C@H]1C(=O)Nc1ccc2c(=O)oc(OC(C)C)nc2c1 [Example 30],–
7.46,6.89,3.7,CC(C)Oc1nc2cc(NC(=O)[C@@H]3CCCN3C(=O)OC(C)(C)C)ccc2c(=O)o1 [Example 28],–
7.68,6.74,5.6,CC(C)Oc1nc2cc(NC(=O)[C@@H](NC(=O)[C@H](Cc3ccccc3)NC(=O)OCc3ccccc3)C(C)C)ccc2c(=O)o1 [Example 33],–
